The source of these data is patent US12304898B2, “Quinolyl-containing compound and pharmaceutical composition, and use thereof” (PrimeGene (Beijing) Co., Ltd., priority 2019, dated 2025).

In general, AUC(0-inf) refers to total exposure, with the tail of the curve extrapolated. A low value points to less exposure. The Cmax is the maximum level reached in the sampled fluid or tissue. A word on the Tmax: it is the time from dosing to the highest level. By half-life is commonly meant how long it takes for the measured level to halve. Lower therefore signals fast loss.

This data set is described as follows: Pharmacokinetic experiment in rats after intragastric administration. To be noted: rat, po, female SD rats, 10 mg/kg, plasma. The format is in vivo. The method, then: The female SD rats were divided into groups, 3 rats in each group, and the example compounds 10, 12, 24, 57, 61, 89, 90, 93, 94, 96 (10 mg/kg) were administered by intragastric administration. Fasting overnight before administration, and the fasting time was from 10 hours before administration to 4 hours after administration. Blood was collected at 0.25, 0.5, 1, 2, 4, 8 and 24 hours after administration. Small animal anesthesia machine was used for isoflurane anesthesia. After that, 0.3 mL of whole blood was collected from the fundus venous plexus and placed in a heparin anticoagulation tube. The sample was centrifuged at 4° C., 4000 rpm, for 5 minutes, and the plasma was transferred to a centrifuge tube, and stored at −80° C. until analysis. The plasma sample was extracted by protein precipitation method, and the extract was processed and analyzed by LC/MS/MS.
`COc1cc2c(Oc3ccc(NC(=O)C4(C(=O)Nc5ccc(F)cc5)CC4)cc3F)ccnc2cc1OCCCCCNC(=O)CSC(=O)C(C)(C)C` [Example 89, S-(2-((5-((4-(2-fluoro-4-(1-((4-fluorophenyl)carbamoyl)cyclopropane-1-carboxamido)phenoxy)-6-methoxyquinolin-7-yl)oxo)phenyl)amino)-2-oxo-ethyl)2,2-dimethylthiopropionate]: the AUC(0-inf) was determined as 1650 ng·h/mL, the highest level (Cmax) was 1000 ng/mL, the Tmax came to 0.833 h and the half-life was 5.94 h.

Turning to `COc1cc2c(Oc3ccc(NC(=O)C4(C(=O)Nc5ccc(F)cc5)CC4)cc3F)ccnc2cc1OCCCCCNC(=O)CSSC` [Example 96, N-(3-fluoro-4-((6-methoxy-7-((5-(2-(methyldisulfanyl)acetylamino)pentyl)oxy)quinolin-4-yl)oxy)phenyl)-N-(4-fluorophenyl)cyclopropyl-1,1-diformamide], the total exposure AUC(0-inf) worked out at 1040 ng·h/mL, the peak concentration (Cmax) was determined as 724 ng/mL, the Tmax amounted to 0.417 h and the half-life was 6.92 h.

Take `CCCCCCCC(=O)SCC(=O)NCCCCCOc1cc2nccc(Oc3ccc(NC(=O)C4(C(=O)Nc5ccc(F)cc5)CC4)cc3F)c2cc1OC` [Example 90]: the AUC(0-inf) was 689 ng·h/mL, the Cmax amounted to 852 ng/mL, the Tmax amounted to 0.333 h and the half-life was 4.25 h.

Turning to `COc1cc2c(Oc3ccc(NC(=O)C4(C(=O)Nc5ccc(F)cc5)CC4)cc3F)ccnc2cc1OCCCCCCSC(C)=O` [Example 10, S-(6-((4-(2-fluoro-4-(1-((4-fluorophenyl)aminoformyl)cyclopropane-1-carboxamido)phenoxy)-6-methoxyquinolin-7-yl)oxy)hexyl)-acetylthioester], the AUC(0-inf) worked out at 468 ng·h/mL, the Cmax worked out at 377 ng/mL, the Tmax came out at 0.833 h and the half-life was 1.24 h.

`COc1cc2c(Oc3ccc(NC(=O)C4(C(=O)Nc5ccc(F)cc5)CC4)cc3F)ccnc2cc1OCCCCCNC(=O)CSC(=O)[C@@H](Cc1cn(C)c2ccccc12)NC(C)=O` [Example 94, S-(2-((5-((4-(2-Fluoro-4-(1-((4-fluorophenyl)carbamoyl)cyclopropane-1-carboxamido)phenoxy)-6-methoxyquinolin-7-yl)oxy)pentyl)amino)-2-oxo-ethyl)-(R)-2-acetylamino-3-(1-methyl-1H-indol-3-yl)thiopropionate]: the total exposure AUC(0-inf) turned out to be 499 ng·h/mL, the Cmax turned out to be 289 ng/mL, the Tmax came to 0.5 h and the half-life is 6.14 h.

`COc1cc2c(Oc3ccc(NC(=O)C4(C(=O)Nc5ccc(F)cc5)CC4)cc3F)ccnc2cc1OCCCCCNC(=O)CSC(=O)[C@H](N)Cc1cn(C)c2ccccc12` [Example 93, S-(2-((5-((4-(2-fluoro-4-(1-((4-fluorophenyl)carbamoyl)cyclopropane-1-carboxamido)phenoxy)-6-methoxyquinolin-7-yl)oxy)pentyl)amino)-2-oxo-ethyl)-(R)-2-amino-3-(1-methyl-1H-indol-3-yl)thiopropionate benzenesulfonate]: the total exposure AUC(0-inf) worked out at 790 ng·h/mL, the concentration peaked (Cmax) at 429 ng/mL, the Tmax was found to be 0.667 h and the half-life was 5.49 h.

`COc1cc2c(Oc3ccc(NC(=O)C4(C(=O)Nc5ccc(F)cc5)CC4)cc3F)ccnc2cc1OCCCCNC(=O)CSC(C)=O` [Example 61]: the total exposure AUC(0-inf) was found to be 175 ng·h/mL, the peak level (Cmax) was 121 ng/mL, the Tmax was found to be 0.5 h and the half-life is 1.84 h.

Take `COc1cc2c(Oc3ccc(NC(=O)C4(C(=O)Nc5ccc(F)cc5)CC4)cc3F)ccnc2cc1OC/C=C/CCCCSC(C)=O` [Example 24, (E)-S-(7-((4-(2-fluoro-4-(1-((4-fluorophenyl)aminoformyl)cyclopropane-1-carbamoyl)phenoxy)-6-methoxyquinolin-7-yl)oxy)heptyl-5-en-1-yl)acetylthio ester]: the AUC(0-inf) was determined as 1070 ng·h/mL, the Cmax was 430 ng/mL, the Tmax was 1.33 h and the half-life was 6.69 h.
